The values that follow come from ChEMBL document CHEMBL1759876, “PNA containing isocytidine nucleobase: synthesis and recognition of double helical RNA” (Bioorg Med Chem Lett, 2011).

Type in all cases: nucleic-acid assay
Assay [1] concerns Hairpin ribozyme RNA. Put plainly: Binding affinity to double helical RNA hairpin HRP1 in sodium acetate buffer at pH 5.5.
In assay [2] the test system is Hairpin ribozyme RNA. Kind of assay: Binding affinity to double helical RNA hairpin HRP4 in sodium acetate buffer at pH 5.5.
Assay [3] concerns Hairpin ribozyme RNA. Put plainly: Binding affinity to double helical RNA hairpin HRP3 in sodium acetate buffer at pH 5.5.
For assay [4], the system named is Hairpin ribozyme RNA. Put plainly: Binding affinity to double helical RNA hairpin HRP2 in sodium acetate buffer at pH 5.5.

For the compound `Cc1cn(CC(=O)N(CCNC(=O)CN(CCNC(=O)CN(CCNC(=O)CN(CCNC(=O)CN(CCNC(=O)[C@@H](N)CCCCN)C(=O)Cn2ccc(N)nc2=O)C(=O)Cn2cc(C)c(=O)[nH]c2=O)C(=O)Cn2ccc(N)nc2=O)C(=O)Cn2cc(C)c(=O)[nH]c2=O)CC(=O)NCCN(CC(N)=O)C(=O)Cn2ccc(N)nc2=O)c(=O)[nH]c1=O`, the Ka came out at 2.7 ×10⁶ /M in the assay with Hairpin ribozyme RNA [1], 0.02 ×10⁶ /M with Hairpin ribozyme RNA [2], 0.5 ×10⁶ /M in the assay with Hairpin ribozyme RNA [3] and 47 ×10⁶ /M in the assay with Hairpin ribozyme RNA [4].
On the same counts, the results for `Cc1cn(CC(=O)N(CCNC(=O)CN(CCNC(=O)CN(CCNC(=O)CN(CCNC(=O)[C@@H](N)CCCCN)C(=O)Cn2ccc(N)nc2=O)C(=O)Cn2cc(C)c(=O)[nH]c2=O)C(=O)Cn2ccc(N)nc2=O)CC(=O)NCCN(CC(=O)NCCN(CC(N)=O)C(=O)Cn2ccc(N)nc2=O)C(=O)Cn2cc(C)c(=O)[nH]c2=O)c(N)nc1=O` are 0.51 ×10⁶ /M, 0.77 ×10⁶ /M, 1.01 ×10⁶ /M and 0.82 ×10⁶ /M.
On the same counts, the results for `Cc1cn(CC(=O)N(CCNC(=O)CN(CCNC(=O)CN(CCNC(=O)CN(CCNC(=O)CN(CCNC(=O)[C@@H](N)CCCCN)C(=O)Cn2ccc(N)nc2=O)C(=O)Cn2cc(C)c(=O)[nH]c2=O)C(=O)Cn2ccc(N)nc2=O)C(=O)Cn2cnc3ncnc(N)c32)CC(=O)NCCN(CC(N)=O)C(=O)Cn2ccc(N)nc2=O)c(=O)[nH]c1=O` are 6 ×10⁶ /M, 0.05 ×10⁶ /M, 0.7 ×10⁶ /M and 1.6 ×10⁶ /M.
In the same order, the values of `Cc1cn(CC(=O)N(CCNC(=O)CN(CCNC(=O)CN(CCNC(=O)CN(CCNC(=O)CN(CCNC(=O)[C@@H](N)CCCCN)C(=O)Cn2ccc(N)nc2=O)C(=O)Cn2cc(C)c(=O)[nH]c2=O)C(=O)Cn2ccc(N)nc2=O)C(=O)Cn2ccc(N)nc2=O)CC(=O)NCCN(CC(N)=O)C(=O)Cn2ccc(N)nc2=O)c(=O)[nH]c1=O` are 84 ×10⁶ /M, 0.2 ×10⁶ /M, 0.5 ×10⁶ /M and 0.4 ×10⁶ /M.
Take `Cc1cn(CC(=O)N(CCNC(=O)CN(CCNC(=O)CN(CCNC(=O)CN(CCNC(=O)CN(CCNC(=O)[C@@H](N)CCCCN)C(=O)Cn2ccc(N)nc2=O)C(=O)Cn2cc(C)c(=O)[nH]c2=O)C(=O)Cn2ccc(N)nc2=O)C(=O)Cn2cnc3nc(N)[nH]c(=O)c32)CC(=O)NCCN(CC(N)=O)C(=O)Cn2ccc(N)nc2=O)c(=O)[nH]c1=O`: the Ka is 1.5 ×10⁶ /M in the assay on Hairpin ribozyme RNA [1], 0.09 ×10⁶ /M with Hairpin ribozyme RNA [2], 0.2 ×10⁶ /M in the assay with Hairpin ribozyme RNA [3] and 0.4 ×10⁶ /M in the assay on Hairpin ribozyme RNA [4].
